The numbers were not newly measured in patent publication US20060292651A1, “Protein labelling with oº-alkylguanine-dna alkyltrnsferase” (priority 2002, published 2006), which cites them from elsewhere.

The target in the series is T1, hAGT (Homo sapiens, UniProt P16455).
T1 sequence (P16455 1-207): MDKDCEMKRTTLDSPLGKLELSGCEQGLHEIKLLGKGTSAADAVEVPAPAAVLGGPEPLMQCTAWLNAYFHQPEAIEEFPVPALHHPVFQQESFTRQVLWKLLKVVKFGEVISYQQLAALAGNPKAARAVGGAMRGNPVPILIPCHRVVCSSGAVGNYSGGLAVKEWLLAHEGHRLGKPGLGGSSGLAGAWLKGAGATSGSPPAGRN
As to conditions: reaction with hAGT.

Consider `Nc1nc(OCc2ccccc2)c2nc[nH]c2n1` [O^6-benzyl-guanine], for which the “second order rate constant” value is “approximately 10^3 sec^−1 M^−1”.
